# Experimental data: patent publication US3981999A, “Fish disease treatment” (Dainippon Pharmaceutical Co., Ltd., priority 1973, dated 1976)
# Tests used:
# [1] = tested on: Pseudomonas anguilliseptica T-2; test: MIC by broth serial dilution; format: cell-based; conditions: T2, bouillon pH 7.2, 20°C, 7 hours, read-out: MIC
# Procedure: (§1) The MIC (minimum inhibitory concentration) of a test compound was determined by the serial dilution method on various pathogenic microorganisms incubated under the following experimental conditions. The lowest concentration at which the visible growth of the organism was inhibited was considered as MIC. […]
# (§2) the broth-dilution method bouillon, pH 7.2, except for Vibrio (3% NaCl-bouillon, pH 7.2), Pasteurella (2% NaCl-Brain Heart Infusion, pH 7.3 and Chondrococcus (TY medium, pH 7.3) 1 drop of a bacterial suspension per test tube (100 - 1000 minimal growing units in the medium) 25°C, except for Pseud. anguilliseptica (20°C)
# (§3) 48 hours, except for Pseudo. anguilliseptica ([…])
# Vibrio anguillarum K-3 = test: MIC by broth serial dilution; format: cell-based; conditions: K3, 3% NaCl-bouillon pH 7.2, 25°C, 48 hours, read-out: MIC
# Procedure: as §1, §2, §3
# [2] = tested on: Aeromonas salmonicida Hara-2; test: MIC by broth serial dilution; format: cell-based; conditions: HARA2, bouillon pH 7.2, 25°C, 48 hours, read-out: MIC
# Procedure: as §1, §2, §3
# [3] = tested on: Aeromonas salmonicida Hara-1; test: MIC by broth serial dilution; format: cell-based; conditions: HARA1, bouillon pH 7.2, 25°C, 48 hours, read-out: MIC
# Procedure: as §1, §2, §3
# Chondrococcus sp K-2 = test: MIC by broth serial dilution; format: cell-based; conditions: TY medium pH 7.3, 25°C, 48 hours; read-out: MIC
# Procedure: as §1, §2, §3
# Chondrococcus sp K-1 = test: MIC by broth serial dilution; format: cell-based; conditions: TY medium pH 7.3, 25°C, 48 hours; read-out: MIC
# Procedure: as §1, §2, §3
# [4] = tested on: Aeromonas salmonicida Kawazu; test: MIC by broth serial dilution; format: cell-based; conditions: bouillon pH 7.2, 25°C, 48 hours, read-out: MIC
# Procedure: as §1, §2, §3
# [5] = tested on: Aeromonas liquefaciens Y-62; test: MIC by broth serial dilution; format: cell-based; conditions: Aeromonas hydrophila, Y62; bouillon pH 7.2, 25°C, 48 hours; read-out: MIC
# Procedure: as §1, §2, §3
# [6] = tested on: Pseudomonas anguilliseptica S-1; test: MIC by broth serial dilution; format: cell-based; conditions: S1, bouillon pH 7.2, 20°C, 7 hours, read-out: MIC
# Procedure: as §1, §2, §3
# [7] = tested on: Aeromonas salmonicida Kusuda; test: MIC by broth serial dilution; format: cell-based; conditions: bouillon pH 7.2, 25°C, 48 hours, read-out: MIC
# Procedure: as §1, §2, §3
# [8] = tested on: Pasteurella piscicida K-1; test: MIC by broth serial dilution; format: cell-based; conditions: Photobacterium damselae, K1; 2% NaCl-Brain Heart Infusion pH 7.3, 25°C, 48 hours; read-out: MIC
# Procedure: as §1, §2, §3
# [9] = tested on: Pasteurella piscicida Al-3; test: MIC by broth serial dilution; format: cell-based; conditions: Photobacterium damselae, AL3; 2% NaCl-Brain Heart Infusion pH 7.3, 25°C, 48 hours; read-out: MIC
# Procedure: as §1, §2, §3
# Vibrio anguillarum A-8 = test: MIC by broth serial dilution; format: cell-based; conditions: A8, 3% NaCl-bouillon pH 7.2, 25°C, 48 hours, read-out: MIC
# Procedure: as §1, §2, §3
# Vibrio anguillarum Km-30 = test: MIC by broth serial dilution; format: cell-based; conditions: KM30, 3% NaCl-bouillon pH 7.2, 25°C, 48 hours, read-out: MIC
# Procedure: as §1, §2, §3
# [10] = tested on: Aeromonas liquefacieus Y-62; test: Oral effect against Aeromonas infection in goldfish; format: in vivo; conditions: for Percent survival: 5 days
# Procedure: Goldfish each weighing about 6 - 7 g were given a fish food containing each of the test compounds. After 30 minutes, the fish were infected intramuscularly with Aeromonas liquefacieus Y-62 (about 10^7 germs/fish) under ether anesthesia. […] In the same manner, the control group was given the same fish food without the test compound.
# goldfish = test: Oral toxicity in goldfish; format: in vivo; conditions: 10% in diet (PA 800, AT-1493 955, AT-1557 935, AT-1475 923 mg/kg); for Mortality: 7 days; for Number of the survival after 1 day from administration / Number of the survival after 2 days from administration / Number of the survival after 3 days from administration / Number of the survival after 4 days from administration / Number of the survival after 5 days from administration / Number of the survival after 6 days from administration / Number of the survival after 7 days from administration: day 0: 5 fish
# Procedure: A diet containing 10% of each of the test compounds was given orally to groups each consisting of 5 goldfish each weighing 6 to 10 g, and observation was made for the following 7 days. The temperature of the water was maintained at 28°C.
# [11] = 0.03% in diet (PA 2.5, AT-1493 2.5, AT-1557 2.2 mg/kg), day 0: PA 10, others 5 fish
# [12] = 0.1% in diet (PA 6.1, AT-1493 7.5, AT-1557 7.6, AT-1475 7.5 mg/kg)
# [13] = 0.1% in diet (PA 6.1, AT-1493 7.5, AT-1557 7.6, AT-1475 7.5 mg/kg), day 0: PA 10, others 5 fish
# [14] = 0.3% in diet, 22.3 mg/kg, day 0: 5 fish
Structure (SMILES),MIC [1] [µg/mL],MIC (Vibrio anguillarum K-3) [µg/mL],MIC [2] [µg/mL],MIC [3] [µg/mL],MIC (Chondrococcus sp K-2) [µg/mL],MIC (Chondrococcus sp K-1) [µg/mL],MIC [4] [µg/mL],MIC [5] [µg/mL],MIC [6] [µg/mL],MIC [7] [µg/mL],MIC [8] [µg/mL],MIC [9] [µg/mL],MIC (Vibrio anguillarum A-8) [µg/mL],MIC (Vibrio anguillarum Km-30) [µg/mL],"Percent survival [10, 12] [%]","Number of surviving fish after 1 day [10, 13]","Number of surviving fish after 2 days [10, 13]","Number of surviving fish after 3 days [10, 13]","Number of surviving fish after 4 days [10, 13]","Number of surviving fish after 5 days [10, 13]",further results
"C=Cn1cc(C(=O)O)c(=O)c2ccc(N3CCN(C)CC3)cc21 [AT-1493, 1,4-Dihydro-7-(4-methyl-1-piperazinyl)-4-oxo-1-vinylquinoline-3-carboxylicacid]",0.1,3,0.1,0.1,3,3,0.1,0.1,0.1,0.1,0.3,1,3,3,100,5,5,5,5,5,"Percent survival ([10]; 0.03% in diet (PA 2.5, AT-1493 2.5, AT-1557 2.2 mg/kg)): 100%; Number of surviving fish after 1 day [10, 11]: 5; Number of surviving fish after 2 days [10, 11]: 5; Number of surviving fish after 3 days [10, 11]: 5; Number of surviving fish after 4 days [10, 11]: 5; Number of surviving fish after 5 days [10, 11]: 5; Mortality (goldfish): 0%; Number of the survival after 1 day from administration (goldfish): 5; Number of the survival after 2 days from administration (goldfish): 5; Number of the survival after 3 days from administration (goldfish): 5; Number of the survival after 4 days from administration (goldfish): 5; Number of the survival after 5 days from administration (goldfish): 5; Number of the survival after 6 days from administration (goldfish): 5; Number of the survival after 7 days from administration (goldfish): 5"
"C=Cn1cc(C(=O)O)c(=O)c2ccc(N3CCNCC3)nc21 [AT-1475, 1,4-Dihydro-7-(1-piperazinyl)-4-oxo-1-vinyl-1,8-naphthyridine-3-carboxylicacid]",0.1,3,1,0.3,1,1,0.3,0.3,0.1,0.3,1,1,10,10,60,5,4,4,3,3,"Percent survival ([10]; 0.3% in diet, 22.3 mg/kg): 100%; Number of surviving fish after 1 day [10, 14]: 5; Number of surviving fish after 2 days [10, 14]: 5; Number of surviving fish after 3 days [10, 14]: 5; Number of surviving fish after 4 days [10, 14]: 5; Number of surviving fish after 5 days [10, 14]: 5; Mortality (goldfish): 0%; Number of the survival after 1 day from administration (goldfish): 5; Number of the survival after 2 days from administration (goldfish): 5; Number of the survival after 3 days from administration (goldfish): 5; Number of the survival after 4 days from administration (goldfish): 5; Number of the survival after 5 days from administration (goldfish): 5; Number of the survival after 6 days from administration (goldfish): 5; Number of the survival after 7 days from administration (goldfish): 5"
